Results as given in patent publication US11878080B2, “Protein capsules” (Cambridge Enterprise Limited, priority 2014, dated 2024).

Tests used:
[1] = Release of encapsulated small molecules from capsules in fresh buffer (UV absorption of supernatant); type: physicochemical
Description: The release of the encapsulated species from the capsules was then studied. To this effect, the capsules were incubated in fresh buffer for an increasing period of time, removed the gels by centrifugation, and measured the concentration of released small molecules in the supernatant through their UV absorption. The results shown in FIG. 4 (d) reveal marked differences in the rate of release of the small molecules.
The loaded microgels were washed with 10 mM HCl at intervals of time from 10 min to 14 d. The solutes after each washing were analysed by UV spectroscopy.

[2] = Release kinetics of insulin, glucagon and lysozyme from protein microgel capsules (washing with DDW pH 7); type: physicochemical; details: compared to insulin and lysozyme proteins
Description: The efficiency of microfluidic techniques for protein capsules synthesis was studied by calculating the percentage of protein participating in capsule formation following the fluorescent signal of labelled protein in residue solutions. After the preparation of the microgel capsules was accomplished and the resulting capsules were washed, in order to remove unreacted species, and the concentration of unreacted protein was calculated following UV absorption and fluorescent signal of each protein. In order to study the release kinetics of insulin, glucagon and lysozyme protein microgel shells, the loaded samples were washed with DDW pH=7 within following intervals of time: 10 min., 30 min., 1 h., 3 h., 8 h., 12 h., 24 h., 48 h., 3 d., 7 d. Each washing solution was than analysed by UV spectroscopy and fluorimeter and exact concentration of the released species was detected.
Finally, whether the aggregation nature of the protein structures influenced the release kinetics of the encapsulated proteins was studied. […] This effect is attributed to the slow aggregation process of glucagon protein in the protein assembly. However, for the multishell structures, the proteins which localise at the core of the microgels tend to dissociate (release) only after the proteins of the outer shell are released. […]

Cc1ccc2c(c1)sc(-c1ccc(N(C)C)cc1)[n+]2C.[Cl-] [ThT, Thioflavin T]
extent of release from capsules ([1]; after one week): not fully released

CC1(C)S[C@@H]2[C@H](NC(=O)COc3ccccc3)C(=O)N2[C@H]1C(=O)O [Penicillin V]
time to maximum release rate ([1]; release from lysozyme capsules in fresh buffer): one

glucagon: human glucagon (Gemini Bio-Products), protein assembled into and released from microgel capsules
release rate of protein from capsules [2]: much faster
